Like-named read-outs stand apart in the source and are kept apart here. Marks after values point to notes of the source that are not given here. Values belong to the molecule of their own block, whether it stands above or below them.
Experiments:
ketose 3-epimerase [1] = type: biochemical, Rhizobium leguminosarum ATCC14480
ketose 3-epimerase [2] = experiment: Substrate specificity of ketose 3-epimerase (epimer content by HPLC); type: biochemical, Rhizobium leguminosarum ATCC14480; details: for Epimer content in the reaction products: 1% (w/v) substrate, pH 8.0, 1 mM MnCl2, 45° C., 17 hours
Procedure: By using the purified preparation of the ketose 3-epimerase, obtained by the method in Experiment 2, the substrate specificity of the enzyme was investigated using various D- or L-ketohexoses and D- or L-ketopentoses as substrates. Substrate solutions were prepared by dissolving D-fructose, D-psicose, D-tagatose, D-sorbose, D-xylulose, D-ribulose, L-fructose, L-psicose, L-tagatose, L-sorbose, L-xylulose, or L-ribulose into 20 mM Tris-HCl buffer (pH 8.0) containing 1 mM MnCl2 to give a final concentration of 1% (w/v), respectively. Then, each substrate solution was further admixed with 2 units/g-substrate or 20 units/g-substrate, on a dry solid basis, as D-psicose 3-epimerase activity of the purified preparation of the ketose 3-epimerase, obtained by the method in Experiment 2; and followed by the enzyme reaction at 45° C. for 17 hours. After stopping the reaction by keeping the reaction mixture at 100° C. for 10 min, the content of epimer formed from each substrate was measured using high performance liquid chromatography (hereinafter, abbreviated as “HPLC”). HPLC was carried out under the following conditions: • Column: MCI GEL CK08EC, commercialized by Mitsubishi Chemical Corporation, Tokyo, Japan; • Eluent: water; • Column temperature: 75° C. • Flow rate: 0.6 ml/min • Detection: RID-10A, a differential refractometer commercialized by Shimadzu Corporation, Kyoto, Japan;

[3] = Ketose 3-epimerase activity assay: D-fructose formed from D-psicose; type: biochemical; details: D-psicose 3-epimerase activity, per purification step
Procedure: The activity of the ketose 3 -epimerase of the present invention can be assayed by measuring the amount of D-fructose formed from D-psicose as a substrate. Specifically, the activity of the enzyme can be assayed as follows: A substrate solution is prepared by dissolving D-psicose in 20 mM Tris-HCl buffer (pH 8.0) containing 1 mM MnCl2 to give a final concentration of 1% (w/v). Two milliliters of the substrate solution is admixed with 0.5 ml of the enzyme solution, and the mixture solution is incubated at 45° C. for 30 min. The reaction is stopped by keeping the reaction mixture in boiling water bath for 5 min. Successively, 1 ml of the reaction mixture is admixed with 1 ml of deionized water and 1 ml NADP solution, prepared by dissolving 2.37 g of NADP, 5.93 g of ATP, and 1 g of MgSO4 7H2O into 500 ml of 0.3 M triethanolamine-HCl buffer (pH 7.6). […] After keeping the resulting mixture at room temperature for 30 min, absorbance of the mixture at 340 nm was measured for determining the amount of D-fructose formed by the reaction. […]
The following experiments explain the present invention in detail. In the following experiments, D-psicose 3-epimerase activity, converting D-psicose into D-fructose, was assayed according to the aforementioned assay method and expressed as ketose 3-epimerase activity.

[4] = Optimum pH and optimum temperature of the enzyme; type: biochemical; details: for Optimum temperature: pH 8.0, 30 min
Procedure: The activity of the ketose 3 -epimerase of the present invention can be assayed by measuring the amount of D-fructose formed from D-psicose as a substrate. Specifically, the activity of the enzyme can be assayed as follows: A substrate solution is prepared by dissolving D-psicose in 20 mM Tris-HCl buffer (pH 8.0) containing 1 mM MnCl2 to give a final concentration of 1% (w/v). Two milliliters of the substrate solution is admixed with 0.5 ml of the enzyme solution, and the mixture solution is incubated at 45° C. for 30 min. The reaction is stopped by keeping the reaction mixture in boiling water bath for 5 min. Successively, 1 ml of the reaction mixture is admixed with 1 ml of deionized water and 1 ml NADP solution, prepared by dissolving 2.37 g of NADP, 5.93 g of ATP, and 1 g of MgSO4 7H2O into 500 ml of 0.3 M triethanolamine-HCl buffer (pH 7.6). While, Enzyme solution A and B, described below, were respectively diluted 4-fold with 0.3 M triethanolamine-HCl buffer (pH 7.6) and then both solutions were mixed in equal amount to make into a mixed enzyme solution. Then, 40 ml of the mixed enzyme solution was admixed with the mixture prepared above. After keeping the resulting mixture at room temperature for 30 min, absorbance of the mixture at 340 nm was measured for determining the amount of D-fructose formed by the reaction. […]
According to the methods described in Experiment 2, the soluble fraction of cell homogenate, obtained by the method in Experiment 5, was partially purified by salting out, dialysis and successive column chromatographies on “SEPABEADS” gel and “BUTYL-TOYOPEARL” gel, and the partially purified enzyme preparation was analyzed according to the methods in Experiment 3. […]

[5] = 1 mM metal salt, substrate solution without 1 mM MnCl2, None = 100
[6] = 1 mM, in comparison with the case without metal ions
[7] = 1 mM metal salt, substrate solution without 1 mM MnCl2, None = 100, D-fructose determined by HPLC

Molecule: [Cl][Al]([Cl])[Cl] [AlCl3]
Relative activity (ketose 3-epimerase [1]; [5]): 86%

Molecule: [Ba+2].[Cl-].[Cl-] [BaCl2]
Relative activity (ketose 3-epimerase [1]; [5]): 96%

Molecule: [Ca+2].[Cl-].[Cl-] [CaCl2]
Relative activity (ketose 3-epimerase [1]; [5]): 89%

Molecule: [Cl-].[Cl-].[Co+2] [CoCl2]
Effect on the ketose 3-epimerase activity (in words) (ketose 3-epimerase [1]): not activated
Relative activity (ketose 3-epimerase [1]): 101%

Molecule: [Cl][Cu][Cl] [CuCl2]
Relative activity (ketose 3-epimerase [1]; [5]): 60%
Effect on the ketose 3-epimerase activity (in words) (ketose 3-epimerase [1]; [6]): slightly inhibited

Molecule: O=C(CO)[C@@H](O)[C@H](O)[C@H](O)CO [D-Fructose, D-fructose]
Action of the ketose 3-epimerase on the substrate (in words) (ketose 3-epimerase [2]): most efficiently catalyzes
Epimer content in the reaction products (ketose 3-epimerase [2]; enzyme 2 units/g-substrate): 17.7%
Epimer content in the reaction products (ketose 3-epimerase [2]; enzyme 2 units/g-substrate, listed as D-fructose): about 18%
Epimer content in the reaction products (ketose 3-epimerase [2]; enzyme 20 units/g-substrate): 25.8%

Molecule: O=C(CO)[C@H](O)[C@H](O)[C@H](O)CO [D-Psicose, D-psicose]
Action of the ketose 3-epimerase on the substrate (in words) (ketose 3-epimerase [2]): most efficiently catalyzes
Epimer content in the reaction products (ketose 3-epimerase [2]; enzyme 2 units/g-substrate): 39.4%
Epimer content in the reaction products (ketose 3-epimerase [2]; enzyme 2 units/g-substrate, listed as D-psicose): about 39%
Epimer content in the reaction products (ketose 3-epimerase [2]; enzyme 20 units/g-substrate): 74.1%

Action of the ketose 3-epimerase on the substrate (in words) (ketose 3-epimerase [2]): efficiently catalyzed
Epimer content in the reaction products (ketose 3-epimerase [2]; enzyme 2 units/g-substrate): 17.1%
Epimer content in the reaction products (ketose 3-epimerase [2]; enzyme 20 units/g-substrate): 43.4%
Molecule: O=C(CO)[C@H](O)[C@H](O)CO [D-Ribulose, D-ribulose]

Action of the ketose 3-epimerase on the substrate (in words) (ketose 3-epimerase [2]): slightly catalyzed
Epimer content in the reaction products (ketose 3-epimerase [2]; enzyme 2 units/g-substrate): 0%
Epimer content in the reaction products (ketose 3-epimerase [2]; enzyme 20 units/g-substrate): 0.1%
Molecule: O=C(CO)[C@H](O)[C@@H](O)[C@H](O)CO [D-Sorbose, D-sorbose]

Molecule: O=C(CO)[C@@H](O)[C@@H](O)[C@H](O)CO [D-Tagatose, D-tagatose]
Action of the ketose 3-epimerase on the substrate (in words) (ketose 3-epimerase [2]): slightly catalyzed
Epimer content in the reaction products (ketose 3-epimerase [2]; enzyme 2 units/g-substrate): 0.6%
Epimer content in the reaction products (ketose 3-epimerase [2]; enzyme 20 units/g-substrate): 5.3%

Action of the ketose 3-epimerase on the substrate (in words) (ketose 3-epimerase [2]): efficiently catalyzed
Epimer content in the reaction products (ketose 3-epimerase [2]; enzyme 2 units/g-substrate): 2.3%
Epimer content in the reaction products (ketose 3-epimerase [2]; enzyme 20 units/g-substrate): 19.6%
Molecule: O=C(CO)[C@@H](O)[C@H](O)CO [D-Xylulose, D-xylulose]

Molecule: O=C(O)CN(CCN(CC(=O)O)CC(=O)O)CC(=O)O [EDTA]
Effect on the ketose 3-epimerase activity (in words) (ketose 3-epimerase [1]): not inhibited
Relative activity (ketose 3-epimerase [1]): 97%

Molecule: [Cl][Fe][Cl] [FeCl2]
Relative activity (ketose 3-epimerase [1]; [7]): 67%

Molecule: [Cl][Fe]([Cl])[Cl] [FeCl3]
Relative activity (ketose 3-epimerase [1]; [7]): 64%

Molecule: [Cl][Hg][Cl] [HgCl2, mercury chloride]
Relative activity (ketose 3-epimerase [1]; [7]): 35%
Effect on the ketose 3-epimerase activity (in words) (ketose 3-epimerase [1]; [6]): remarkable inhibited

Molecule: O=C(CO)[C@H](O)[C@@H](O)[C@@H](O)CO [L-Fructose, L-fructose]
Epimer content in the reaction products (ketose 3-epimerase [2]; enzyme 2 units/g-substrate): 0%
Epimer content in the reaction products (ketose 3-epimerase [2]; enzyme 20 units/g-substrate): 1.4%

Molecule: O=C(CO)[C@@H](O)[C@@H](O)[C@@H](O)CO [L-Psicose, L-psicose]
Epimer content in the reaction products (ketose 3-epimerase [2]; enzyme 2 units/g-substrate): 1.6%
Epimer content in the reaction products (ketose 3-epimerase [2]; enzyme 20 units/g-substrate): 11.3%

Action of the ketose 3-epimerase on the substrate (in words) (ketose 3-epimerase [2]): efficiently catalyzed
Epimer content in the reaction products (ketose 3-epimerase [2]; enzyme 2 units/g-substrate): 19.2%
Epimer content in the reaction products (ketose 3-epimerase [2]; enzyme 20 units/g-substrate): 58.4%
Molecule: O=C(CO)[C@@H](O)[C@@H](O)CO [L-Ribulose, L-ribulose]

Molecule: O=C(CO)[C@@H](O)[C@H](O)[C@@H](O)CO [L-Sorbose, L-sorbose]
Epimer content in the reaction products (ketose 3-epimerase [2]; enzyme 2 units/g-substrate): 0%
Epimer content in the reaction products (ketose 3-epimerase [2]; enzyme 20 units/g-substrate): 6.2%

Molecule: O=C(CO)[C@H](O)[C@H](O)[C@@H](O)CO [L-Tagatose, L-tagatose]
Epimer content in the reaction products (ketose 3-epimerase [2]; enzyme 2 units/g-substrate): 3.2%
Epimer content in the reaction products (ketose 3-epimerase [2]; enzyme 20 units/g-substrate): 26.7%

Action of the ketose 3-epimerase on the substrate (in words) (ketose 3-epimerase [2]): efficiently catalyzed
Epimer content in the reaction products (ketose 3-epimerase [2]; enzyme 2 units/g-substrate): 1.6%
Epimer content in the reaction products (ketose 3-epimerase [2]; enzyme 20 units/g-substrate): 10.3%
Molecule: O=C(CO)[C@H](O)[C@@H](O)CO [L-Xylulose, L-xylulose]

Molecule: [Cl-].[Cl-].[Mg+2] [MgCl2]
Relative activity (ketose 3-epimerase [1]; [5]): 141%
Relative activity (ketose 3-epimerase [1]; 1 mM metal salt, substrate solution without 1 mM MnCl2, None = 100, listed as Mg^2+): about 140%
Effect on the ketose 3-epimerase activity (in words) (ketose 3-epimerase [1]; [6]): Activated

Molecule: [Cl][Mn][Cl] [MnCl2]
Relative activity (ketose 3-epimerase [1]; [5]): 283%
Relative activity (ketose 3-epimerase [1]; 1 mM metal salt, substrate solution without 1 mM MnCl2, None = 100, listed as Mn^2+): about 280%
Effect on the ketose 3-epimerase activity (in words) (ketose 3-epimerase [1]; [6]): Activated

Molecule: [Cl][Ni][Cl] [NiCl2]
Relative activity (ketose 3-epimerase [1]; [5]): 64%
Effect on the ketose 3-epimerase activity (in words) (ketose 3-epimerase [1]; [6]): slightly inhibited

Molecule: [Cl][Pb][Cl] [PbCl2]
Relative activity (ketose 3-epimerase [1]; [5]): 69%
Effect on the ketose 3-epimerase activity (in words) (ketose 3-epimerase [1]; [6]): slightly inhibited

Molecule: [Cl][Sn][Cl] [SnCl2]
Relative activity (ketose 3-epimerase [1]; [5]): 114%
Effect on the ketose 3-epimerase activity (in words) (ketose 3-epimerase [1]; [6]): slightly activated

Molecule: [Cl-].[Cl-].[Sr+2] [SrCl2]
Relative activity (ketose 3-epimerase [1]; [5]): 103%
Effect on the ketose 3-epimerase activity (in words) (ketose 3-epimerase [1]; [6]): not activated

Molecule: [Cl-].[Cl-].[Zn+2] [ZnCl2]
Relative activity (ketose 3-epimerase [1]; [5]): 13%
Effect on the ketose 3-epimerase activity (in words) (ketose 3-epimerase [1]; [6]): remarkable inhibited

B1: ketose 3-epimerase: purified ketose 3-epimerase from Rhizobium leguminosarum ATCC14480, 282 amino acid residues represented by SEQ ID NO: 2 (protein, listed as Rhizobium leguminosarum)
chain: MEGFGVHTSMWTMNWDRAGAEKAIAGAVHYKMDFIEIALLNAPAVDAKHTRALLEKNKLRAVCSLGLPEHAWASVRPDAAIEHLKVAIEKTAEMNAEALSGVIFGGIGERTGVPPTQGEYDNIAKVLDVAAKHARKHGIQLGVEAVNRYENHLINSAQQAVDMVERVGADNIFVHLDTYHMNIEEKGAANGILIARDHLKYIHLSESDRGTPGYGNIPWDAIYAALAAIGFKGGLAMESFINMPPEVAYGLAVWRPVARDMEEVMDKGLPFLRNKAEQYGLI
Specific activity of ketohexose 3-epimerase [3]: 41.6 units/mg-protein
Optimum pH ([4]; 45° C., 30 min, in the presence of 1 mM Mn2+ ion): 9.0-9.5*
Optimum temperature ([4]; in the absence of 1 mM Mn2+ ion): 50 °C
Optimum temperature ([4]; in the presence of 1 mM Mn2+ ion): (65° C.)*

— patent US20110275138A1, “KETOSE 3-EPIMERASE, ITS PREPARATION AND USES” (KABUSHIKI KAISHA HAYASHIBARA SEIBUTSU KAGAKU KENKYUJO, priority 2005, published 2011)
